Measurements as given in US20160343958A1, “ORGANIC TRANSISTOR, COMPOUND, ORGANIC SEMICONDUCTOR MATERIAL FOR NON-LIGHT-EMITTING ORGANIC SEMICONDUCTOR DEVICE, MATERIAL FOR ORGANIC TRANSISTOR, COATING SOLUTION FOR NON-LIGHT-EMITTING ORGANIC SEMICONDUCTOR DEVICE, AND ORGANIC SEMICONDUCTOR FILM FOR NON-LIGHT-EMITTING ORGANIC SEMICONDUCTOR DEVICE” (FUJIFILM Corporation, priority 2014, published 2016).

assay: Solubility in toluene; format: physicochemical; conditions: 5-level grade A-E
Description: Each of the compounds of the present invention or comparative compounds (2% by mass, 1% by mass, 0.5% by mass, or 0.1% by mass each) was mixed with toluene (1 mL), heated to 100° C., and then left to stand for 30 minutes at room temperature. […] For practical use, the compound needs to be evaluated to be A, B, C, or D. The compound preferably needs to be evaluated to be A, B, or C, more preferably needs to be evaluated to be A or B, and particularly preferably needs to be evaluated to be A.
E: Precipitation occurred at 0.1% by mass.

Compound	Solubility
CCCc1ccc2c(c1)sc1c2ccc2c3ccc(CCC)cc3sc21 [Compound example 1]	B (Precipitation did not occur at 1% by mass but occurred at 2% by mass.)
CCCCCc1ccc2c(c1)sc1c2ccc2c3ccc(CCCCC)cc3sc21 [Compound example 3]	A (Precipitation did not occur at 2% by mass.)
CCCCCCCCc1ccc2c(c1)sc1c2ccc2c3ccc(CCCCCCCC)cc3sc21 [Compound example 6]	A (Precipitation did not occur at 2% by mass.)
CCCCCCCCCCCCc1ccc2c(c1)sc1c2ccc2c3ccc(CCCCCCCCCCCC)cc3sc21 [Compound example 10]	A (Precipitation did not occur at 2% by mass.)
CCCCCCCCCCCCCCCCCCc1ccc2c(c1)sc1c2ccc2c3ccc(CCCCCCCCCCCCCCCCCC)cc3sc21 [Compound example 16]	B (Precipitation did not occur at 1% by mass but occurred at 2% by mass.)
CCCCCCCCc1ccc2cc3c(cc2c1)sc1c3ccc2c3cc4ccc(CCCCCCCC)cc4cc3sc21 [Compound example 20]	B (Precipitation did not occur at 1% by mass but occurred at 2% by mass.)
CCCCCCCCCCCCc1ccc2cc3c(cc2c1)sc1c3ccc2c3cc4ccc(CCCCCCCCCCCC)cc4cc3sc21 [Compound example 24]	B (Precipitation did not occur at 1% by mass but occurred at 2% by mass.)
CCCCCCCCc1ccc(-c2ccc3c(c2)sc2c3ccc3c4ccc(-c5ccc(CCCCCCCC)cc5)cc4sc32)cc1 [Compound example 34]	B (Precipitation did not occur at 1% by mass but occurred at 2% by mass.)
CCCCCCCCc1ccc(-c2ccc3c(c2)sc2c3ccc3c4ccc(-c5ccc(CCCCCCCC)s5)cc4sc32)s1 [Compound example 62]	B (Precipitation did not occur at 1% by mass but occurred at 2% by mass.)
CCCCCCCC/C=C/c1ccc2c(c1)sc1c2ccc2c3ccc(/C=C/CCCCCCCC)cc3sc21 [Compound example 298]	B (Precipitation did not occur at 1% by mass but occurred at 2% by mass.)
CCCCCCC#Cc1ccc2c(c1)sc1c2ccc2c3ccc(C#CCCCCCC)cc3sc21 [Compound example 310]	B (Precipitation did not occur at 1% by mass but occurred at 2% by mass.)
CCCCCCCCOc1ccc2c(c1)sc1c2ccc2c3ccc(OCCCCCCCC)cc3sc21 [Compound example 326]	B (Precipitation did not occur at 1% by mass but occurred at 2% by mass.)
CCCCCCCCCCCCc1ccc2cc3c(cc2c1)sc1c3ccc2c3ccc(CCCCCCCCCCCC)cc3sc21 [Compound example 344]	B (Precipitation did not occur at 1% by mass but occurred at 2% by mass.)
CCCCCCCCCCCCc1ccc2c(c1)sc1c2ccc2c3ccccc3sc21 [Compound example 358]	B (Precipitation did not occur at 1% by mass but occurred at 2% by mass.)
CCCCCCCCCCCCc1ccc(-c2ccc3c(c2)sc2c3ccc3c4ccccc4sc32)cc1 [Compound example 372]	B (Precipitation did not occur at 1% by mass but occurred at 2% by mass.)
CCCCCCCCCCCCc1ccc(-c2ccc3c(c2)sc2c3ccc3c4ccccc4sc32)s1 [Compound example 386]	B (Precipitation did not occur at 1% by mass but occurred at 2% by mass.)
CCCCCCCCc1ccc2sc3c(ccc4c5cc(CCCCCCCC)ccc5sc43)c2c1 [Compound example 396]	B (Precipitation did not occur at 1% by mass but occurred at 2% by mass.)
CCCCC(CC)Cc1ccc2c(c1)sc1c2ccc2c3ccc(CC(CC)CCCC)cc3sc21 (stereo not shown) [Compound example 407]	A (Precipitation did not occur at 2% by mass.)
CCCCCCCCc1ccc2c(c1)oc1c2ccc2c3ccc(CCCCCCCC)cc3oc21 [Compound example 416]	C (Precipitation did not occur at 0.5% by mass but occurred at 1% by mass.)
C[Si](C)(C)C#Cc1c(C#C[Si](C)(C)C)c2c3ccc(-c4cccs4)cc3sc2c2sc3cc(-c4cccs4)ccc3c12 [Compound example 427]	D (Precipitation did not occur at 0.1% by mass but occurred at 0.5% by mass.)
c1ccc2c(c1)sc1c2ccc2c3ccccc3sc21 [comparative compound 1, reference compound]	E (Precipitation occurred at 0.1% by mass.)
Cc1ccc2c(c1)sc1c2ccc2c3ccc(C)cc3sc21 [comparative compound 2, reference compound]	E (Precipitation occurred at 0.1% by mass.)
c1ccc2c(c1)sc1c2ccc2c3cccc(-c4ccc5c6ccccc6c6ccccc6c5c4)c3sc21 [comparative compound 6, reference compound]	E (Precipitation occurred at 0.1% by mass.)
c1ccc(-c2cccc(-c3ccc4sc5c(ccc6c7cc(-c8cccc(-c9ccccc9)c8)ccc7sc65)c4c3)c2)cc1 [compound 3, reference compound]	E (Precipitation occurred at 0.1% by mass.)
c1ccc(-c2ccc3sc4c5sc6ccc(-c7ccccc7)cc6c5c(-c5ccccc5)c(-c5ccccc5)c4c3c2)cc1 [compound 4, reference compound]	E (Precipitation occurred at 0.1% by mass.)
